From patent US20190127456A1, “METHODS OF TREATING IDIOPATHIC PULMONARY FIBROSIS” (FibroGen, Inc., priority 2017, published 2019) come the findings set out here.

Data set [1] is described as follows: Phase two study in IPF patients: treatment emergent adverse events. The data set is classed as in vivo, human. Conditions: Phase two trial, 48 weeks. As to the method:
(§1) A double-blind, placebo-controlled Phase two study was conducted in which 103 patients, randomized (1:1) to receive pamrevlumab or placebo, were treated for 48 weeks. Patients' self-administered the Saint George's Respiratory Questionnaire (SGRQ) to assess changes in health-related quality of life parameters over the course of the study. This questionnaire was developed for patients with chronic airflow limitation and the results correlate well with established measures of symptom level, disease activity and disability. Patients completed the SGRQ on Day 1 (baseline) and every 12 weeks thereafter during the 48-week treatment period. The SGRQ comprises three domains (symptoms, activity, and impact) with the score for each domain ranging from 0 to 100, with higher scores indicating worse health-related quality of life (Jones P W, et al. Respir Med 1991; 85:Suppl B:25-31; Barr J T et al. Clin Ther 2000; 22:1121-45).
Patients in the Phase two clinical trial described above in Example 2 were monitored for the occurrence of treatment emergent adverse events. The percentage of patients treated with an anti-CTGF antibody (pamrevlumab) that experienced diarrhea was 16.0% compared to 7.5% for placebo treated patients. The percentage of patients treated with pamrevlumab that experienced nausea was 14.0% compared to 13.2% for placebo treated patients. […]

In data set [2] the test system is radiation-induced lung fibrosis. Description: Mouse radiation-induced lung fibrosis model: lung function by blood gas analysis. The data set is classed as in vivo. Conditions: blood gas analysis at 24 weeks, compared to RT with no treatment; data not shown. The procedure:
The objective of this study was to compare the activity of pamrevlumab monotherapy to either pirfenidone or nintedanib alone, and to evaluate the potential for enhanced activity of the combined agents. […] In this study, mice received thoracic irradiation (RT), followed by the therapeutic administration of the agents at 16 weeks post-irradiation when lung remodeling was evident by HRCT. After 8 weeks of drug treatment, lung density and volume were assessed by HRCT, lung function was assessed by blood gas analysis, and mice were sacrificed for histologic and gene expression analysis. C57B1/6 mice were irradiated with 14.5 Gy photons; full thorax, single dose. Treatment with therapeutic agent(s) (pamrevlumab, pirfenidone, and/or nintedanib) was initiated 16 weeks post-irradiation and continued for 8 weeks. Pamrevlumab (FG) was given IP, BIW, at 40 mg/kg; pirfenidone (PF) was given PO in chow, QD, at 300 mg/kg; nintedanib (ND) was given PO in chow, QD, at 100 mg/kg. Treatment with each agent alone, with combinations of two, and with a triple combination were carried out. Controls included non-irradiated mice, mice that were irradiated and not treated, and mice that were irradiated and given human IgG. […] The effect of the treatments on lung function was assessed by blood gas analysis (data not shown).

Data set [3] has the same test system. Description: Mouse radiation-induced lung fibrosis model: lung volume by HRCT. The data set is classed as in vivo. Conditions: 14.5 Gy irradiated mice, treated 8 weeks from week 16, measured at 24 weeks; FIG. 4. The procedure:
The objective of this study was to compare the activity of pamrevlumab monotherapy to either pirfenidone or nintedanib alone, and to evaluate the potential for enhanced activity of the combined agents. […] In this study, mice received thoracic irradiation (RT), followed by the therapeutic administration of the agents at 16 weeks post-irradiation when lung remodeling was evident by HRCT. After 8 weeks of drug treatment, lung density and volume were assessed by HRCT, lung function was assessed by blood gas analysis, and mice were sacrificed for histologic and gene expression analysis. C57B1/6 mice were irradiated with 14.5 Gy photons; full thorax, single dose. Treatment with therapeutic agent(s) (pamrevlumab, pirfenidone, and/or nintedanib) was initiated 16 weeks post-irradiation and continued for 8 weeks. Pamrevlumab (FG) was given IP, BIW, at 40 mg/kg; pirfenidone (PF) was given PO in chow, QD, at 300 mg/kg; nintedanib (ND) was given PO in chow, QD, at 100 mg/kg. Treatment with each agent alone, with combinations of two, and with a triple combination were carried out. Controls included non-irradiated mice, mice that were irradiated and not treated, and mice that were irradiated and given human IgG. Endpoint measurements were taken at 24 weeks for HRCT (lung structure), blood gas analysis (lung function), histology and gene expression analysis. […]

For data set [4], the system named is fibrosis genes in irradiated lung. Description: Microarray analysis of mRNA transcripts in irradiated lung. The format is in vivo, mouse. The procedure: C57B1/6 mice were irradiated with 14.5 Gy photons; full thorax, single dose. Treatment with therapeutic agent(s) (pamrevlumab, pirfenidone, and/or nintedanib) was initiated 16 weeks post-irradiation and continued for 8 weeks. Pamrevlumab (FG) was given IP, BIW, at 40 mg/kg; pirfenidone (PF) was given PO in chow, QD, at 300 mg/kg; nintedanib (ND) was given PO in chow, QD, at 100 mg/kg. Treatment with each agent alone, with combinations of two, and with a triple combination were carried out. Controls included non-irradiated mice, mice that were irradiated and not treated, and mice that were irradiated and given human IgG. Endpoint measurements were taken at 24 weeks for HRCT (lung structure), blood gas analysis (lung function), histology and gene expression analysis.
Microarray analysis of mRNA transcripts of numerous genes at 24 weeks after RT were carried out by standard techniques to compare the expression profiles of irradiated and treated animals to irradiated animals that were not further treated. The results of the later group, RT (control), were used to normalize the expression data from the other groups. Briefly, RNA from 4-7 animals per condition (RT (control), RT+hIgG, RT+FG, RT+ND, RT+PF, RT+FG+ND, RT+FG+PF, RT+ND+PF, RT+FG+ND+PF). Affymetrix 430 2.0 data was used. RT induced changes (≥1.5×, p<0.05) were filtered for treatment dependent correction (>50% correction, p<0.05). 80 RT-induced and 68 RT-suppressed transcripts were normalized at least 50% by one or more treatments. The resulting list was dominated by pamrevlumab-dependent normalization. Functional analysis indicated pamrevlumab treatment preferentially normalized RT genes known to be regulated by TGFβ and TNF.

Another data set has as its system IPF. In words: Phase two study in IPF patients: St. George's Respiratory Questionnaire (SGRQ). The data set is classed as in vivo, human. The note with it: 48 weeks treatment, compared with placebo, FIGS. 5A-5D. The procedure: as §1
Where [5] appears, read: irradiated mouse lung, 24 weeks after RT, 8 weeks treatment, RT fold change 0.4.

As for pamrevlumab, the “percentage of patients that experienced diarrhea” value in data set [1] (placebo 7.5%) was determined as 16.0%. In addition, the “percentage of patients that experienced nausea” value in data set [1] (placebo 13.2%) stood at 14.0%. For the same substance, in data set [2], the O2 saturation entry is “normalized O2 saturation”. The “radiation-induced lung volume decrease” value in data set [3] is listed as “significantly inhibited radiation-induced lung volume decrease from baseline”. Also, the “% Normalization of gene expression, Igfbp5” value in data set [4] (irradiated mouse lung, 24 weeks after RT, 8 weeks treatment, RT fold change 0.3) stood at 70%. In data set [4] (setting [5]), the “% Normalization of gene expression, Abca3” value is 75% and the “% Normalization of gene expression, Gdf2” value is on record as 68%. For the same substance, the “% Normalization of gene expression, Cx3cl1” value in data set [4] (irradiated mouse lung, 24 weeks after RT, 8 weeks treatment, RT fold change 0.5) was 57%. In addition, in data set [4] (irradiated mouse lung, 24 weeks after RT, 8 weeks treatment, RT fold change 2.0), the “% Normalization of gene expression, Retnla” value was 43%. Besides, in data set [4] (irradiated mouse lung, 24 weeks after RT, 8 weeks treatment, RT fold change 2.1), the “% Normalization of gene expression, Nt5e” value was 53%. Moreover, in data set [4] (irradiated mouse lung, 24 weeks after RT, 8 weeks treatment, RT fold change 2.2), the “% Normalization of gene expression, Plat” value is given as 51%. Further, the “% Normalization of gene expression, Ccr2” value in data set [4] (irradiated mouse lung, 24 weeks after RT, 8 weeks treatment, RT fold change 2.4) is listed as 37%. The “% Normalization of gene expression, Igfbp7” value in data set [4] (irradiated mouse lung, 24 weeks after RT, 8 weeks treatment, RT fold change 2.6) is 50%. In data set [4] (irradiated mouse lung, 24 weeks after RT, 8 weeks treatment, RT fold change 2.7), the “% Normalization of gene expression, Cdkn2a” value came out at 35%. The “% Normalization of gene expression, Apln” value in data set [4] (irradiated mouse lung, 24 weeks after RT, 8 weeks treatment, RT fold change 5.3) is reported as 59%. For the same substance, the “% Normalization of gene expression, Wisp1” value in data set [4] (irradiated mouse lung, 24 weeks after RT, 8 weeks treatment, RT fold change 6.9) is 52%. Also, in data set [4] (irradiated mouse lung, 24 weeks after RT, 8 weeks treatment, RT fold change 11.9), the “% Normalization of gene expression, Wisp1” value is 54%. In addition, the “normalization of fibrosis-related transcripts” value in data set [4] (microarray at 24 weeks after RT, monotherapies compared) is “normalized more fibrosis-related transcripts than other monotherapies”. Besides, the “SGRQ all domains (symptoms, activity, impact) and total score, change from baseline” value in the data set on IPF is listed as “improvement (lower values)”.
